Reference: patent US20230271950A1, “ANTIBACTERIAL PICOLINAMIDE COMPOUNDS” (University of Notre Dame Du Lac, priority 2020, published 2023)
Where two headings read alike, the source gives them in different places.

Columns and labels:
C. difficile = test: MIC by broth microdilution against C. difficile strains; format: cell-based, Clostridioides difficile
MRSA (NRS70, NRS119) = test: MIC against MRSA strains; format: cell-based, Staphylococcus aureus; conditions: for MIC: Staphylococcus aureus, read-out: MIC
E. faecium NCTC7171 = test: MIC against E. faecium; format: cell-based, Enterococcus faecium; conditions: Enterococcus faecium
Lactobacillus reuteri = test: MIC against gut bacterium Lactobacillus reuteri; format: cell-based
Bifidobacterium longum = test: MIC against gut bacterium Bifidobacterium longum; format: cell-based; conditions: Bifidobacterium longum, Bifidobacterium longum strain HM-846, read-out: MIC
Fusobacterium nucleatum = test: MIC against gut bacterium Fusobacterium nucleatum; format: cell-based; conditions: Fusobacterium nucleatum, Fusobacterium nucleatum strain HM-992, read-out: MIC
Lactobacillus gasseri = test: MIC against gut bacterium Lactobacillus gasseri; format: cell-based
S. aureus ATCC29213 = test: MIC against MSSA; format: cell-based, Staphylococcus aureus; conditions: Staphylococcus aureus
Veillonella sp. HM-49 = test: MIC against gut bacterium Veillonella sp.; format: cell-based
Bacteroides fragilis = test: MIC against gut bacterium Bacteroides fragilis; format: cell-based; conditions: Bacteroides fragilis, Bacteroides fragilis strain HM-709, read-out: MIC
Eubacterium sp. = test: MIC against gut bacterium Eubacterium sp.; format: cell-based; conditions: Eubacterium, Eubacterium sp. strain HM-178, read-out: MIC
Corynebacterium spp. = test: MIC against gut bacterium Corynebacterium spp.; format: cell-based; conditions: Corynebacterium, Corynebacterium spp. strain HM-784

O=C(O)c1ccc2oc(NC(=O)c3cc(Oc4cccc(OC(F)(F)F)c4)ccn3)nc2c1 [Compound 1, Sodium 2-(4-(3-(trifluoromethoxy)phenoxy)picolinamido)benzo[d]oxazole-5-carboxylate]
MIC (C. difficile; Clostridioides difficile, ATCC43255): 0.125 µg/mL | MIC (C. difficile; Clostridioides difficile, ATCC43255, C. difficile ATCC 43255, read-out: MIC against C. difficile): 0.12 µg/mL | MIC (C. difficile; Clostridioides difficile, ATCC43598): 0.125 µg/mL | MIC (C. difficile; Clostridioides difficile, BAA1801): 0.125 µg/mL | MIC (C. difficile; Clostridioides difficile, BAA1803, C. difficile BAA-1803, Table 7, read-out: MIC): 0.0625 µg/mL | MIC (C. difficile; Clostridioides difficile, BAA1803, C. difficile BAA-1803, Table 9, read-out: MIC): 0.06 µg/mL | MIC (C. difficile; Clostridioides difficile, BAA1804): 0.125 µg/mL | MIC (C. difficile; Clostridioides difficile, BAA1812): 0.125 µg/mL | MIC (C. difficile; Clostridioides difficile, BAA1814): 0.125 µg/mL | MIC (C. difficile; Clostridioides difficile, BAA1870): 0.125 µg/mL | MIC (C. difficile; Clostridioides difficile, C. difficile 23828 (FR, fidaxomicin-resistant), Table 7, read-out: MIC): 0.25 µg/mL | MIC (C. difficile; Clostridioides difficile, C. difficile 23828, clinical isolate resistant to FDX, Table 1, read-out: MIC): 0.25 µg/mL | MIC (C. difficile; Clostridioides difficile, C. difficile 23828, Table 9, read-out: MIC): 0.25 µg/mL | MIC (C. difficile; Clostridioides difficile, C. difficile 24531 (VR, vancomycin-resistant), Table 7, read-out: MIC): 0.25 µg/mL | MIC (C. difficile; Clostridioides difficile, C. difficile 24531, Table 9, read-out: MIC): 0.25 µg/mL | MIC (C. difficile; Clostridioides difficile, C. difficile 26675 (MR, metronidazole-resistant), Table 7, read-out: MIC): 0.25 µg/mL | MIC (C. difficile; Clostridioides difficile, C. difficile 26675, clinical isolate resistant to MTZ, Table 1, read-out: MIC): 0.25 µg/mL | MIC (C. difficile; Clostridioides difficile, C. difficile 26675, Table 9, read-out: MIC): 0.25 µg/mL | MIC (C. difficile; Clostridioides difficile, C. difficile HM-88, Table 9, read-out: MIC): 0.25 µg/mL | MIC (C. difficile; Clostridioides difficile, C. difficile NR49294, Table 7, read-out: MIC): 0.0625 µg/mL | MIC (C. difficile; Clostridioides difficile, C. difficile NR49294, Table 9, read-out: MIC): 0.06 µg/mL | MIC (C. difficile; Clostridioides difficile, C. difficile NR49302, Table 7, read-out: MIC): 0.0625 µg/mL | MIC (C. difficile; Clostridioides difficile, C. difficile NR49302, Table 9, read-out: MIC): 0.06 µg/mL | MIC (C. difficile; Clostridioides difficile, C. difficile NR49305, Table 7, read-out: MIC): 0.0625 µg/mL | MIC (C. difficile; Clostridioides difficile, C. difficile NR49305, Table 9, read-out: MIC): 0.06 µg/mL | MIC (C. difficile; Clostridioides difficile, C. difficile NR49318, Table 7, read-out: MIC): 0.06 µg/mL | MIC (C. difficile; Clostridioides difficile, C. difficile NR49318, Table 9, read-out: MIC): 0.06 µg/mL | MIC (C. difficile; Clostridioides difficile, C. difficile NR-13429, Table 9, read-out: MIC): 0.06 µg/mL | MIC (C. difficile; Clostridioides difficile, C. difficile NR-13431, Table 9, read-out: MIC): 0.06 µg/mL | MIC (C. difficile; Clostridioides difficile, C. difficile NR-13433, Table 9, read-out: MIC): 0.25 µg/mL | MIC (C. difficile; Clostridioides difficile, C. difficile NR-32885, Table 9, read-out: MIC): 0.25 µg/mL | MIC (C. difficile; Clostridioides difficile, C. difficile NR-32890, Table 9, read-out: MIC): 0.25 µg/mL | MIC (C. difficile; Clostridioides difficile, C. difficile NR-32891, Table 9, read-out: MIC): 0.25 µg/mL | MIC (C. difficile; Clostridioides difficile, C. difficile NR-32895, Table 9, read-out: MIC): 0.25 µg/mL | MIC (C. difficile; Clostridioides difficile, C. difficile NR-32896, Table 9, read-out: MIC): 0.25 µg/mL | MIC (C. difficile; Clostridioides difficile, C. difficile NR-32903, Table 9, read-out: MIC): 0.25 µg/mL | MIC (C. difficile; Clostridioides difficile, C. difficile NR-49281, Table 9, read-out: MIC): 0.06 µg/mL | MIC (C. difficile; Clostridioides difficile, C. difficile NR-49283, Table 9, read-out: MIC): 0.06 µg/mL | MIC (C. difficile; Clostridioides difficile, C. difficile NR-49284, Table 9, read-out: MIC): 0.25 µg/mL | MIC (C. difficile; Clostridioides difficile, C. difficile NR-49285, Table 9, read-out: MIC): 0.03 µg/mL | MIC (C. difficile; Clostridioides difficile, C. difficile NR-49287, Table 9, read-out: MIC): 0.06 µg/mL | MIC (C. difficile; Clostridioides difficile, C. difficile NR-49289, Table 9, read-out: MIC): 0.25 µg/mL | MIC (C. difficile; Clostridioides difficile, C. difficile NR-49297, Table 9, read-out: MIC): 0.06 µg/mL | MIC (C. difficile; Clostridioides difficile, C. difficile NR-49298, Table 9, read-out: MIC): 0.06 µg/mL | MIC (C. difficile; Clostridioides difficile, C. difficile NR-49304, Table 9, read-out: MIC): 0.25 µg/mL | MIC (C. difficile; Clostridioides difficile, C. difficile NR-49306, Table 9, read-out: MIC): 0.25 µg/mL | MIC (C. difficile; Clostridioides difficile, C. difficile NR-49311, Table 9, read-out: MIC): 0.25 µg/mL | MIC (C. difficile; Clostridioides difficile, C. difficile NR-49313, Table 9, read-out: MIC): 0.06 µg/mL | MIC (C. difficile; Clostridioides difficile, C. difficile NR-49321, Table 9, read-out: MIC): 0.25 µg/mL | MIC (C. difficile; Clostridioides difficile, C. difficile NR-49327, Table 9, read-out: MIC): 0.25 µg/mL | MIC (C. difficile; Clostridioides difficile, C. difficile NR-49328, Table 9, read-out: MIC): 0.06 µg/mL | MIC50 (C. difficile; Clostridioides difficile, 101 C. difficile strains): 0.12 µg/mL | MIC90 (C. difficile; Clostridioides difficile, 101 C. difficile strains, read-out: MIC90 (101 strains)): 0.25 µg/mL | Selectivity (C. difficile; MIC MRSA NRS70/MIC C. difficile ATCC43255, Table 7): 128 | Selectivity (C. difficile; Table 8): 128 | lower activity against MRSA (MRSA (NRS70, NRS119); MRSA versus C. difficile, Table 1): 128 fold | MIC (MRSA (NRS70, NRS119); MRSA NRS70, Table 1): 16 µg/mL | MIC (MRSA (NRS70, NRS119); MRSA NRS70, Table 7): 16 µg/mL | MIC (MRSA (NRS70, NRS119); MRSA NRS119, Table 1): 16 µg/mL | MIC (E. faecium NCTC7171; NCTC7171, E. faecium NCTC 7171, Table 10, unit inferred, read-out: Activity (MIC) against E. faecium): ≥ 128 µg/mL | MIC (E. faecium NCTC7171; E. faecium NCTC7171, Table 1, read-out: MIC): > 128 µg/mL | MIC (Lactobacillus reuteri; Lactobacillus reuteri strain HM-102, Table 7): 4 mg/L | MIC (Lactobacillus reuteri; Limosilactobacillus reuteri, Lactobacillus reuter strain HM-102, Table 1, read-out: MIC): 4 mg/L | MIC (Bifidobacterium longum; Table 1): 16 µg/mL | MIC (Bifidobacterium longum; Table 7): 16 µg/mL | MIC (Fusobacterium nucleatum; Table 1): 4 µg/mL | MIC (Fusobacterium nucleatum; Table 7): 4 µg/mL | MIC (Lactobacillus gasseri; Lactobacillus gasseri strain HM-644, Table 7): >16 mg/L | MIC (Lactobacillus gasseri; Lactobacillus gasseri, Lactobacillus gasser strain HM-644, Table 1, read-out: MIC): > 16 mg/L | MIC (S. aureus ATCC29213; MSSA ATCC 29213, Table 10, unit inferred, read-out: Activity (MIC) against S. aureus): 64 µg/mL | MIC (S. aureus ATCC29213; S. aureus ATCC29213, Table 1, read-out: MIC): 64 µg/mL | MIC (Veillonella sp. HM-49; SP.HM49, Veillonella sp. HM-49, Table 1, read-out: MIC): 16 µg/mL | MIC (Veillonella sp. HM-49; Veillonella sp. strain HM-49, Table 7): 16 µg/mL | MIC (Bacteroides fragilis; Table 1): 2 µg/mL | MIC (Bacteroides fragilis; Table 7): 4 µg/mL | MIC (Eubacterium sp.; Table 1): 8 µg/mL | MIC (Eubacterium sp.; Table 7): 16 µg/mL | MIC (Corynebacterium spp.; Table 1): 8 µg/mL | MIC (Corynebacterium spp.; Table 7): 8 µg/mL
